Experimental data reported in ChEMBL document CHEMBL5465560, “Selectivity Literature for EUbOPEN Chemogenomic Library” (2024).

Experiments:
[1] = target: Casein kinase II subunit alpha' (Homo sapiens) (UniProt P19784); experiment: Selectivity interaction (KinomeScan (DiscoverX)) EUB0000595a CSNK2A2; settings: at 10 µM
[2] = target: TGF-beta receptor type-2 (Homo sapiens) (UniProt P37173); experiment: Selectivity interaction (KinomeScan (DiscoverX)) EUB0000695a TGFBR2; settings: at 100 nM
[3] = target: T1, Kinase suppressor of Ras 2 (Homo sapiens) (UniProt Q6VAB6); experiment: Selectivity interaction (Kinase panel (Z-LYTE Assay)) EUB0001632a KSR2; settings: at 10 µM
T1 sequence (whole entry): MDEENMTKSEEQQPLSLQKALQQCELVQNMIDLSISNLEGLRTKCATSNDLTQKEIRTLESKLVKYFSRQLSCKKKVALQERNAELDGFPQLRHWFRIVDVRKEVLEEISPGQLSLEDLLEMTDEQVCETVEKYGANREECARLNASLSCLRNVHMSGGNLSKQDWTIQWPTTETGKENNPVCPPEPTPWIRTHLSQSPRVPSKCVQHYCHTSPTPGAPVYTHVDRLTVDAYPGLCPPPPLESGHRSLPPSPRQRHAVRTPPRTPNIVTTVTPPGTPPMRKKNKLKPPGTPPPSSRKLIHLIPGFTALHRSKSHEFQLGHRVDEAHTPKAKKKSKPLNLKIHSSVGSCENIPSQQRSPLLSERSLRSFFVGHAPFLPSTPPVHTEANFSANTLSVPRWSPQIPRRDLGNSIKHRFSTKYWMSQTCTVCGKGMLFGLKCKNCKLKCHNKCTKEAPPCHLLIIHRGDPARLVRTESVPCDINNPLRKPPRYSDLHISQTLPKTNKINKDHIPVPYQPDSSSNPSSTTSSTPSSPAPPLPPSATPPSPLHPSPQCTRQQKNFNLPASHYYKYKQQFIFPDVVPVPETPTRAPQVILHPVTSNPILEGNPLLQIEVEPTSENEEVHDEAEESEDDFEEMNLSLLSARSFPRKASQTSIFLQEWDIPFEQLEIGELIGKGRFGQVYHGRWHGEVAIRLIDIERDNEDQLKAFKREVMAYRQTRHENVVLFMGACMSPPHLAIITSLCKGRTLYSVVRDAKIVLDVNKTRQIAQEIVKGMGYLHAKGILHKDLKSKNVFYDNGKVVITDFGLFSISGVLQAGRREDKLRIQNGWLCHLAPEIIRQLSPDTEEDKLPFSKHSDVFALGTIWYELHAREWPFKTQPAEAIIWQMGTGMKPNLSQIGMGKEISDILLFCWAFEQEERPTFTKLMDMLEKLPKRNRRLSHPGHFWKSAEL

[4] = target: Beta-2 adrenergic receptor (Homo sapiens, UniProt P07550); experiment: Selectivity interaction (Panel of kinases, GPCRs, ion channels and transporters (enzymatic assay)) EUB0000223bCl ADRB2
Sequence of Beta-2 adrenergic receptor (P07550 whole entry, looked up): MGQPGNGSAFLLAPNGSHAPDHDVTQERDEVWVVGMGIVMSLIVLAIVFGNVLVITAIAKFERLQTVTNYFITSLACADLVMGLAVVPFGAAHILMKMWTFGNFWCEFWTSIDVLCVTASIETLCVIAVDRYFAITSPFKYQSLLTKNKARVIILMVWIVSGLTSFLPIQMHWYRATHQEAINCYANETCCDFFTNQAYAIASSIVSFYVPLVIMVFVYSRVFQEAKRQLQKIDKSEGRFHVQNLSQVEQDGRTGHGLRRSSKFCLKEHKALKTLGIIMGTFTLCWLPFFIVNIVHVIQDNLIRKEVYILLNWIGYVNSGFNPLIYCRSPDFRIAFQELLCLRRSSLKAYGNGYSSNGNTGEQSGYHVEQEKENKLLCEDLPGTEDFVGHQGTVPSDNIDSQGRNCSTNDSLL

[5] = target: Serine/threonine-protein kinase 32B (Homo sapiens) (UniProt Q9NY57); experiment: Selectivity interaction (KinomeScan (DiscoverX)) EUB0001619a STK32B; settings: at 1 µM
Sequence of Serine/threonine-protein kinase 32B (Homo sapiens) (Q9NY57 whole entry): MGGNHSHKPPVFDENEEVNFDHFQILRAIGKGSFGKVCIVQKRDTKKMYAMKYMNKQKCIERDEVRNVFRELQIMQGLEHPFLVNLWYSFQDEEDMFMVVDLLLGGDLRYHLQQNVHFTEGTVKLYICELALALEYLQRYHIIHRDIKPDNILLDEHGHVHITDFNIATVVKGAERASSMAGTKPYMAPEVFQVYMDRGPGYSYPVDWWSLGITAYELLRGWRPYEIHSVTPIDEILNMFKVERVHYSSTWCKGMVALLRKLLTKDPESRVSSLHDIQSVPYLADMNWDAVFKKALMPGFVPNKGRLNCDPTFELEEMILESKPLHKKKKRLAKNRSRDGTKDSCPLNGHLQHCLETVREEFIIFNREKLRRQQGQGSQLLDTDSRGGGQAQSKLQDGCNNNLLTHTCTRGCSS

[6] = target: T2, Serine/threonine-protein kinase LATS2 (Homo sapiens) (UniProt Q9NRM7); experiment: Selectivity interaction (ActivX KiNativ screen (ex vivo kinase selectivity in human PBMCs)) EUB0001619a LATS2; type: cell-based; settings: PBMC, at 1 µM
T2 sequence (whole entry): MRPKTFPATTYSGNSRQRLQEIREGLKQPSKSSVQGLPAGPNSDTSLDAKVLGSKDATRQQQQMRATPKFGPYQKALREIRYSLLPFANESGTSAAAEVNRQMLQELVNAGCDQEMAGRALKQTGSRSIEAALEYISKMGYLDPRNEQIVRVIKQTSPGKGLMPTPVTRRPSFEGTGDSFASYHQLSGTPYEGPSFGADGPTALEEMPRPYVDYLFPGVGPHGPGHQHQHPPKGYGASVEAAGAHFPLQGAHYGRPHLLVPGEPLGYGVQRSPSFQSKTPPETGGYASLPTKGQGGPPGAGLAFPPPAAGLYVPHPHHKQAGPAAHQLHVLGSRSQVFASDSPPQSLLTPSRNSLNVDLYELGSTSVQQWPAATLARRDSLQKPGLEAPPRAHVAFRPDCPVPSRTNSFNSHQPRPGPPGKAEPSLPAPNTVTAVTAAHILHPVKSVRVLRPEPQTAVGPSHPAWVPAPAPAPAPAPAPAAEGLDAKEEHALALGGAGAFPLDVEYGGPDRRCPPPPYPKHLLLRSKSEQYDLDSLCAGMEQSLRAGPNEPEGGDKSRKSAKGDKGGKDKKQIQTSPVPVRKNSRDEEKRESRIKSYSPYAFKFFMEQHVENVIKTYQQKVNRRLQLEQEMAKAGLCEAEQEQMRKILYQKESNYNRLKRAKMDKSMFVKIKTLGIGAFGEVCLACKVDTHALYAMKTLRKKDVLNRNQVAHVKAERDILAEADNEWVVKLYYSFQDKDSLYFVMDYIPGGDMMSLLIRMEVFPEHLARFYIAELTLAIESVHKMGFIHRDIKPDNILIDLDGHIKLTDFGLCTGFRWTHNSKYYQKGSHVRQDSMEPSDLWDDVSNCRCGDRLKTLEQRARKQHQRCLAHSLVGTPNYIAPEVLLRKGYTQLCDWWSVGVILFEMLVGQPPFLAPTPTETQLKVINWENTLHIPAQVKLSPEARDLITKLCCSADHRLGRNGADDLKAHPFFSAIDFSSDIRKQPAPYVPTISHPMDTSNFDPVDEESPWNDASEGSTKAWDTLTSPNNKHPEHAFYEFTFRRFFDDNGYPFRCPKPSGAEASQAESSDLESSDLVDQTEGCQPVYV

[7] = target: Cyclin-dependent kinase 14 (Homo sapiens) (UniProt O94921); settings: at 10 µM
Sequence of Cyclin-dependent kinase 14 (Homo sapiens) (O94921 whole entry): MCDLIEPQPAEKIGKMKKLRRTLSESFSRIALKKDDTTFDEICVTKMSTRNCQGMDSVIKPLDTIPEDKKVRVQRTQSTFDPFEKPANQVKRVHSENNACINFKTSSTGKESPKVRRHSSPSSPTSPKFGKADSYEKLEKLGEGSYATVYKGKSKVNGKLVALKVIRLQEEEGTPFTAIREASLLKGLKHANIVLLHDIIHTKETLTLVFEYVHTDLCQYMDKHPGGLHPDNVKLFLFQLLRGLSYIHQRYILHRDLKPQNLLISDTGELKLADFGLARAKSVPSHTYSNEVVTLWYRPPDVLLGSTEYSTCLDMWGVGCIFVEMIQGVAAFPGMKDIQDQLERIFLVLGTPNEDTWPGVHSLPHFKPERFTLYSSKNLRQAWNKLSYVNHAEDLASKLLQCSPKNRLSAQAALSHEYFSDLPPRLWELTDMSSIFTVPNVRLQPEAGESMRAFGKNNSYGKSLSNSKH

Sequence of TGF-beta receptor type-2 (Homo sapiens) (P37173 whole entry): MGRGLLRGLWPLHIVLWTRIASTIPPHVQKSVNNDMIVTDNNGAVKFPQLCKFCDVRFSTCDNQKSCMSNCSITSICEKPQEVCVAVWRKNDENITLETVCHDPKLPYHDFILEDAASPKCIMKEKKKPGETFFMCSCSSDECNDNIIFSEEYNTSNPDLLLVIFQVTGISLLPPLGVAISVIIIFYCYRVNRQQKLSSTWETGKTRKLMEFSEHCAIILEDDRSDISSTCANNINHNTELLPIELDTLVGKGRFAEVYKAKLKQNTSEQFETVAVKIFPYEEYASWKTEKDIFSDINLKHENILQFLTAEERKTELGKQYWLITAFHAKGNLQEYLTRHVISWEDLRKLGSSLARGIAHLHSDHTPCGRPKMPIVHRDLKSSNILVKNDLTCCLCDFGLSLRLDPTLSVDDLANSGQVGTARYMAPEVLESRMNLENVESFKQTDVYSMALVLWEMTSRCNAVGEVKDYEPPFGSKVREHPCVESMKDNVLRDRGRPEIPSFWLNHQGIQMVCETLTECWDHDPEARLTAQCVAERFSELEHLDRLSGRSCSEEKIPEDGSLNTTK
Sequence of Casein kinase II subunit alpha' (Homo sapiens) (P19784 whole entry, looked up): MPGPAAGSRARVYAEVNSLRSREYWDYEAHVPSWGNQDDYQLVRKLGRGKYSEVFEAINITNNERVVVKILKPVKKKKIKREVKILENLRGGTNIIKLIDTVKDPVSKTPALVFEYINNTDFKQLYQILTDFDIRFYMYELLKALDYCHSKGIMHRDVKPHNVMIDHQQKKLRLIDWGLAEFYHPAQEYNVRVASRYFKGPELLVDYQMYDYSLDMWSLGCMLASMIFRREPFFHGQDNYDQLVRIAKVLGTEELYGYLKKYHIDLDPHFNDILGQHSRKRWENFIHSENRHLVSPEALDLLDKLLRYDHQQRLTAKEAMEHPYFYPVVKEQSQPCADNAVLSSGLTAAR

## COCC(=O)NC/C=C/c1ccc2ncnc(Nc3ccc(Oc4ccc(C)nc4)c(C)c3)c2c1 [CP-724714]
[1]
  % of control: 100%

## Cc1cc(F)c(C(=O)Nc2cccc(-c3nncn3C(C)C)n2)cc1-n1cnc(C2CC2)c1
[2]
  % of control: 99%

## Cn1cc(-n2cnc3c(NCc4nc5cc(Cl)c(Cl)cc5[nH]4)nc(N4CCOCC4)nc32)cn1
[3]
  % of control: 1.65%

## COc1cc(C(=O)N2CC[C@@H](O)[C@@H](N)C2)cc2nc(-c3cc4ccccc4n3CC3CC3)n(C)c12
[4]
  pXC50: < 4.5 M

## N#Cc1cccc(-c2c[nH]c3ncnc(N4CCOCC4)c23)c1
[5]
  % of control: 53%
[6]
  % of inhibition: 16%

## CCN(CC)CCCCNc1ncc2cc(-c3cc(OC)cc(OC)c3)c(NC(=O)NC(C)(C)C)nc2n1
[7]
  % of control: 100%
